Reference: article PMC12292992, “Betulinic Acid ω-Triphenylphosphonium Alkyl Esters: Antiproliferative Activities and In Silico Pharmacokinetic Profiles” (Biomedicines, 2025)

Experiments:
[1] = test system: MRC-5 normal human lung fibroblasts; experiment: MTT cell viability assay, normal lung fibroblasts; format: cell-based; conditions: MRC5, MRC-5, 72 h
Description: (§1) Human cell lines were obtained from the American Type Culture Collection (ATCC, Manassas, VA, USA). Normal lung MRC-5 fibroblasts (ATCC® CCL-171™), SK-MES-1 lung cancer cells (ATCC® HTB-58™), and J82 bladder carcinoma cells (ATCC® HTB-1™) were grown as monolayers in Eagle’s minimum essential medium (MEM) with Earle’s salts, 2 mM L-glutamine, and 1.5 g/L sodium bicarbonate. Gastric epithelial AGS cells (ATCC® CRL-1739™) were grown as monolayers in Ham’s F-12 medium containing 1 mM L-glutamine and 1.5 g/L sodium bicarbonate. Promyelocytic leukemia HL-60 (ATCC® CCL-240™), colorectal adenocarcinoma HCT-15 (ATCC® CCL-225™), metastatic colorectal COLO205 (ATCC® CCL-222™), and breast cancer AU565 (ATCC® CRL-2351™, ER^−-HER2/neu^+) cells were grown in suspension in an RPMI-1640 medium containing 1 mM sodium pyruvate and 2.0 g/L sodium bicarbonate. Human breast cancer MCF-7 (ATCC® HTB-22™, ER^+-HER2/neu^−) and MDA-MB-231 (ATCC® HTB-26™, ER^−-HER2/neu^−) cells were grown as monolayers in DMEM medium. All media were supplemented with 10% heat-inactivated fetal bovine serum (HI-FBS), 100 IU/mL penicillin G, and 100 µg/mL streptomycin. Cells were maintained at 37 °C in a humidified incubator with 5% CO2.
(§2) MRC-5, SK-MES-1, J82, and AGS cells were seeded at a density of 5 × 10^4 cells/mL in 96-well plates. COLO205, HCT-15, MCF-7, MDA-MB-231, and AU565 cells were seeded at 1 × 10^5 cells/mL, while HL-60 cells were plated at 3 × 10^5 cells/mL. A volume of 100 µL of the cell suspension was added to each well. After 24 h, the compounds were added in increasing concentrations (ranging from 0 to 100 µM), and cells were incubated for 24, 48, or 72 h. The compounds were dissolved in DMSO and diluted in complete medium to a final concentration of 0.5% DMSO. Cells treated with 0.5% DMSO in complete medium were used as viability controls (100%). Etoposide (98% purity, Sigma-Aldrich, St. Louis, MO, USA) was used as the reference compound. Each concentration was tested in quadruplicate, and each experiment was performed twice using independent cell preparations. At the end of the incubation period, cell viability was determined using the MTT reduction assay. The results were transformed into percentages relative to controls, and IC50 values were obtained graphically from the dose–response curves. Results are presented as IC50 values ± standard deviation (SD).

AU565 cells = experiment: Oxygen consumption assay (Clark-type electrode); format: cell-based, human; conditions: AU565, 10 and 20 µM
Description: Oxygen consumption of the tumor cells was measured polarographically using a Clark-type electrode (Yellow Springs Instruments, Dayton, OH, USA) placed horizontally in a cell of 0.6 mL volume at 25 °C, coupled to a YSI monitor (model 53). The electrode signal was recorded in a computer connected to a DI-148U module with a USB interface. Data were acquired using the Windaq Acquisition Waveform Recorder software v3.36 (DataQ Instruments, Akron, OH, USA). The test medium used contained 150 mM NaCl, 5 mM KCl, and 1 mM Tris-HCl, and pH 7.4. 5 mM glutamine was added with the cells and test compounds. Oxygen consumption was recorded when the cell aliquots (6 × 10^6 cells) were added. Oligomycin (1.5 μg/mL) was added as an inhibitor of the Fo subunit of ATP synthase prior to the incorporation of the compounds under study. FCCP (carbonyl cyanide-p-trifluoromethoxyphenylhydrazone, 50 nM) was used prior to the addition of test compounds as an internal control to calibrate the electrode system and confirm the maximum uncoupling capacity of the cells.

HCT-15 cells [2] = experiment: LDH release assay; format: cell-based, human
Description: (§3) COLO205 and HCT-15 cells were cultured at 2 × 10^4 cells/well in 96-well plates and incubated for 24 h. Afterwards, BA-C4-TPP^+Br^− was added in increasing concentrations (0.5, 1, 2.5, and 5 µM) for 24 h. Finally, the supernatant of each well was transferred to a new plate (10 µL/well), and the LDH reaction mix was added (100 µL/well). The plate was incubated for 20 min at room temperature, and the absorbance of each well was measured using a Varioskan® Flash plate reader (Thermo Scientific, Waltham, MA, USA) at 450 nm. All values are expressed as a percentage of LDH activity relative to cells incubated with Cell Lysis solution (provided in the kit) for 24 h.

COLO205 cells = experiment: LDH release assay; format: cell-based, human; conditions: COLO205, 0.5–5 μM, 24 h
Description: as §3

HCT-15 cells [3] = experiment: MTT cell viability assay, colorectal carcinoma; format: cell-based, human; conditions: for IC50: Homo sapiens
Description: as §1, §2

HL-60 cells = experiment: MTT cell viability assay, leukemia; format: cell-based; conditions: Homo sapiens, HL-60, 72 h
Description: as §1, §2

Q: How did the IC50 [1] turn out when `C=C(C)[C@@H]1CC[C@]2(C(=O)OCCCC[P+](c3ccccc3)(c3ccccc3)c3ccccc3)CC[C@]3(C)[C@H](CC[C@@H]4[C@@]5(C)CC[C@H](O)C(C)(C)[C@@H]5CC[C@]43C)[C@@H]12` [BA-C4-TPP^+Br^−, 4-Triphenylphosphoniobutyl 3β-hydroxylup-20(29)-en-28-oate bromide] was run?
A: 210 ± 10 nM

Q: What about the mitochondrial uncoupling effect (AU565 cells) of the same compound?
A: the strongest uncoupler in AU565 cells

Q: What about the LDH release (HCT-15 cells [2]; HCT-15, 2.5 μM, 24 h, relative to Cell Lysis solution) of the same compound?
A: 18%

Q: And the “LDH release relative to control (DMSO)” value (HCT-15 cells [2]; HCT-15, 24 h)?
A: double the control (DMSO) value

Q: And the LDH release (COLO205 cells)?
A: no significant LDH release

Q: And the “increase in potency compared to non-modified BA scaffold” value (HCT-15 cells [3]; HCT-15 cells at 72 h)?
A: approximately 7 fold

Q: And the IC50 (HCT-15 cells [3]; HCT-15, 24 h)?
A: 1460 ± 170 nM

Q: What about the IC50 (HCT-15 cells [3]; HCT-15, 48 h) of the same compound?
A: 610 ± 160 nM

Q: What about the IC50 (HCT-15 cells [3]; HCT-15, 72 h) of the same compound?
A: 520 ± 120 nM

Q: And the IC50 (HL-60 cells)?
A: 220 ± 40 nM
